Experiments:
Assay type in all cases: in vivo
Dichromothrips corbetti = assay: Orchid thrips (Dichromothrips corbetti) floral-immersion test; details: adult thrips, 72 hours after treatment, read-out: mortality in comparison with untreated controls
Description: B.2 Orchid Thrips (Dichromothrips Corbetti)
Dichromothrips corbetti adults used for bioassay were obtained from a colony maintained continuously under laboratory conditions. For testing purposes, the test compound is diluted in a 1:1 mixture of acetone:water (vol:vol), plus Kinetic HV at a rate of 0.01% v/v.
Thrips potency of each compound was evaluated by using a floral-immersion technique. All petals of individual, intact orchid flowers were dipped into treatment solution and allowed to dry in Petri dishes. Treated petals were placed into individual resealable plastic along with about 20 adult thrips. All test arenas were held under continuous light and a temperature of about 28° C. for duration of the assay. After 3 days, the numbers of live thrips were counted on each petal. The percent mortality was recorded 72 hours after treatment.

Heliothis virescens = assay: Tobacco budworm (Heliothis virescens) microtiter plate insect diet test; details: 120 h, egg and larval mortality after 5 days, read-out: mortality in comparison with untreated controls
Description: B.5 Tobacco Budworm (Heliothis virescens)
For evaluating control of tobacco budworm (Heliothis virescens) the test unit consisted of 96-well-microtiter plates containing an insect diet and 15-25 H. virescens eggs.
The compounds were formulated using a solution containing 75% v/v water and 25% v/v DMSO. Different concentrations of formulated compounds were sprayed onto the insect diet at 10 μl, using a custom built micro atomizer, at two replications.
(§1) After application, microtiter plates were incubated at about 28±1° C. and about 80±5% relative humidity for 5 days. Egg and larval mortality was then visually assessed.

Aphis craccivora = assay: Cowpea aphid (Aphis craccivora) spray test on potted cowpea plants; details: after 72 hours, read-out: mortality in comparison with untreated controls
Description: B.3 Cowpea Aphid (Aphis Craccivora)
The active compound is dissolved at the desired concentration in a mixture of 1:1 (vol:vol) distilled water:acetone. Surfactant (Kinetic HV) is added at a rate of 0.01% (vol/vol). The test solution is prepared at the day of use.
Potted cowpea plants were colonized with approximately 50-100 aphids of various stages by manually transferring a leaf tissue cut from infested plant 24 hours before application. Plants were sprayed after the pest population has been recorded. Treated plants are maintained on light carts at about 28° C. Percent mortality was assessed after 72 hours.

Ceratitis capitata = assay: Mediterranean fruitfly (Ceratitis capitata) microtiter plate insect diet test; details: 120 h, egg and larval mortality after 5 days, read-out: mortality in comparison with untreated controls
Description: B.4 Mediterranean Fruitfly (Ceratitis capitata)
For evaluating control of Mediterranean fruitfly (Ceratitis capitata) the test unit consisted of microtiter plates containing an insect diet and 50-80 C. capitata eggs.
(§2) The compounds were formulated using a solution containing 75% v/v water and 25% v/v DMSO. Different concentrations of formulated compounds were sprayed onto the insect diet at 5 μl, using a custom built micro atomizer, at two replications.
as §1

Nephotettix virescens = assay: Rice green leafhopper (Nephotettix virescens) spray test on rice seedlings; details: adults, after 72 hours, read-out: mortality in comparison with untreated controls
Description: B.7 Rice Green Leafhopper (Nephotettix virescens)
Rice seedlings were cleaned and washed 24 hours before spraying. The active compounds were formulated in 1:1 acetone:water (vol:vol), and 0.01% vol/vol surfactant (Kinetic HV) was added. Potted rice seedlings were sprayed with 5-6 ml test solution, air dried, covered with Mylar cages cages and inoculated with 10 adults. Treated rice plants were kept at about 28-29° C. and relative humidity of about 50-60%. Percent mortality was recorded after 72 hours.

Myzus persicae = assay: Green peach aphid (Myzus persicae) systemic test, artificial diet under membrane; details: 72 h, adult aphids, after 3 days, read-out: mortality in comparison with untreated controls
From the text: B.6 Green Peach Aphid (Myzus persicae)
For evaluating control of green peach aphid (Myzus persicae) through systemic means the test unit consisted of 96-well-microtiter plates containing liquid artificial diet under an artificial membrane.
The compounds were formulated using a solution containing 75% v/v water and 25% v/v DMSO. Different concentrations of formulated compounds were pipetted into the aphid diet, using a custom built pipetter, at two replications.
After application, 5-8 adult aphids were placed on the artificial membrane inside the microtiter plate wells. The aphids were then allowed to suck on the treated aphid diet and incubated at about 23±1° C. and about 50±5% relative humidity for 3 days. Aphid mortality and fecundity was then visually assessed.

Plutella xylostella = assay: Diamond back moth (Plutella xylostella) cabbage leaf dip test; details: foliar, 3rd instar larvae, 72 hours after treatment, read-out: mortality in comparison with untreated controls
Description: B.8 Diamond Back Moth (Plutella xylostella)
The active compound is dissolved at the desired concentration in a mixture of 1:1 (vol:vol) distilled water:aceteone. Surfactant (Kinetic HV) is added at a rate of 0.01% (vol/vol). The test solution is prepared at the day of use.
Leaves of cabbage were dipped in test solution and air-dried. Treated leaves were placed in petri dishes lined with moist filter paper and inoculated with ten 3rd instar larvae. Mortality was recorded 72 hours after treatment. Feeding damages were also recorded using a scale of 0-100%.

Spodoptera eridania = assay: Southern armyworm (Spodoptera eridania), 2nd instar larvae, foliar spray on lima bean; details: 96 h, 4 days after treatment, read-out: mortality in comparison with untreated controls
Description: B.9 Southern Armyworm (Spodoptera eridania), 2nd Instar Larvae
The active compounds were formulated by a Tecan liquid handler in 100% cyclohexanone as a 10,000 ppm solution supplied in tubes. The 10,000 ppm solution was serially diluted in 100% cyclohexanone to make interim solutions. These served as stock solutions for which final dilutions were made by the Tecan in 50% acetone:50% water (v/v) into 5 or 10 ml glass vials. A nonionic surfactant (Kinetic®) was included in the solution at a volume of 0.01% (v/v). The vials were then inserted into an automated electrostatic sprayer equipped with an atomizing nozzle for application to plants/insects.
Lima bean plants (variety Sieva) were grown 2 plants to a pot and selected for treatment at the 1st true leaf stage. Test solutions were sprayed onto the foliage by an automated electrostatic plant sprayer equipped with an atomizing spray nozzle. The plants were dried in the sprayer fume hood and then removed from the sprayer. Each pot was placed into perforated plastic bags with a zip closure. About 10 to 11 armyworm larvae were placed into the bag and the bags zipped closed. […] Mortality and reduced feeding were assessed 4 days after treatment, compared to untreated control plants.

Anthonomus grandis = assay: Boll weevil (Anthonomus grandis) microtiter plate insect diet test; details: 120 h, egg and larval mortality after 5 days, read-out: mortality in comparison with untreated controls
Description: B.1 Boll Weevil (Anthonomus grandis)
For evaluating control of boll weevil (Anthonomus grandis) the test unit consisted of 96-well-microtiter plates containing an insect diet and 5-10 A. grandis eggs.
as §2
After application, microtiter plates were incubated at about 25±1° C. and about 75±5% relative humidity for 5 days. Egg and larval mortality was then visually assessed.

CON=Cc1nn(-c2ccc(Cl)c(Cl)c2)cc1CN1CCC(C#N)CC1 (mixture of isomers) [IA-1, 1-[[1-(3,4-dichlorophenyl)-3-[(E/Z)-methoxyiminomethyl]pyrazol-4-yl]methyl]piperidine-4-carbonitrile]
> 75%: mortality at 500 ppm (Dichromothrips corbetti) | mortality at 2500 ppm (Heliothis virescens) | mortality at 500 ppm (Aphis craccivora) | mortality at 2500 ppm (Ceratitis capitata) | mortality at 500 ppm (Nephotettix virescens) | mortality at 2500 ppm (Myzus persicae) | mortality at 500 ppm (Plutella xylostella) | mortality at 300 ppm (Spodoptera eridania) | mortality at 2500 ppm (Anthonomus grandis)

N#CC1CCN(Cc2cn(-c3ccc(Cl)c(Cl)c3)nc2C=NOCC(F)(F)F)CC1 (mixture of isomers) [IA-2, 1-[[1-(3,4-dichlorophenyl)-3-[(E/Z)-2,2,2-trifluoroethoxyiminomethyl]pyrazol-4-yl]methyl]piperidine-4-carbonitrile]
> 75%: mortality at 500 ppm (Dichromothrips corbetti) | mortality at 2500 ppm (Heliothis virescens) | mortality at 500 ppm (Aphis craccivora) | mortality at 2500 ppm (Ceratitis capitata) | mortality at 500 ppm (Nephotettix virescens) | mortality at 500 ppm (Plutella xylostella) | mortality at 300 ppm (Spodoptera eridania) | mortality at 2500 ppm (Anthonomus grandis)

Reference: patent publication US20160318897A1, “AZOLE COMPOUNDS CARRYING AN IMINE-DERIVED SUBSTITUENT” (BASF SE, priority 2013, published 2016)
